These results are taken from US9241951B2, “Of gastrointestinal health, immunity and performance by dietary intervention” (BIOATLANTIS LTD, priority 2009, dated 2016).

What all share (type): in vivo, pig
A short description of assay [1]: Faecal pH, dry matter and faeces (diarrhoea) scoring, Example 4. The text has this:
(§1) One hundred and ninety two piglets were weaned at twenty four days of age, with an initial live weight of 6.4±0.785 Kg and assigned to one of four dietary treatments or 21 days post weaning. The dietary treatments consisted of (T1) basal diet, (T2) basal diet with 300 ppm LAM, (T3) basal diet with 236 ppm FUC, (T4) Basal diet with 300 ppm LAM and 236 ppm FUC. Diets were formulated to have identical concentrations of digestible energy (DE) (16 MJ/Kg) and ileal digestible lysine (14 g/Kg). All amino acid requirements were met relative to lysine (Close, 1994). Chromium III oxide was added to the diets for determination of nutrient digestibility. The LAM and FUC were derived from Laminaria hyperborea.
(§2) Piglets were housed in groups of 4 and offered feed twice daily. Water was supplied ad-libitum. Any pig displaying symptoms of illness was treated appropriately and recorded. Pigs were weighed on day 0 (day of weaning), 7, 14 and 21. Feed intake was monitored weekly. Fresh faecal samples were taken on day 10 and were analysed for E. coli and Lactobacilli concentrations. Faeces samples were collected from each pen on day 12-17 and were retained for chemical analysis. Fresh faecal samples were removed on day 14 and were frozen and retained for volatile fatty acid analysis. Fresh faecal samples were taken on day 17 for pH determination.
A scoring system was applied to indicate its presence and severity. The following scoring system was used: 1=hard, 2=slightly soft, 3=soft, partially formed, 4=loose, semi-liquid and 5=watery, mucous-like.

Assay [2] relates to Escherichia coli. In words: Faecal microbiology, Example 4. The conditions noted are these: LAM diets (300 ppm) v no LAM supplementation (7.84).
Description: as §1, §2
A sample was serially diluted (1:10) in 9.0 ml aliquots of maximum recovery diluent (MRD, Oxoid, Basingstoke, UK), and spread plated (0.1 ml aliquots) onto selective agars. Lactobacillus spp. were isolated on de Man, Rogosa, Sharp agar (MRS, Oxoid) with overnight incubation at 37° C. in 5% CO2. The API 50 CHL (BioMerieux, France) kit was used to confirm suspect Lactobacilli spp. E. coli species were isolated on MacConkey agar (Oxoid), following aerobic incubation at 37° C. for 18-24 hours. Suspect colonies were confirmed with API 20E (BioMerieux, France).

For assay [3], the system named is IL-6. The assay can be described thus: Cytokine gene expression in unchallenged ileum and colon tissue (qPCR), Example 5. The note with it: unchallenged ileum or colon tissue; LAM 300, 600 ppm. The procedure: (§3) 21 pigs with an initial weight of 17.9±2.2 Kg were assigned to one of the 3 dietary treatments: (T1) control; (T2) basal diet+300 ppm LAM; (T3) basal diet+600 ppm LAM. Experimental feeding continued for 21 days ad libitum. Diets were formulated to have similar digestible energy (DE) (14.4 MJ/Kg) and ileal digestible lysine (12.5 g/Kg).
(§4) Ileal and colonic tissues was stabilised in RNAlater® solution and stored overnight at 4° C. The following day, RNAlater® was removed and samples were stored at −86° C. prior to RNA extraction.
(§5) Tissue samples for RNA extraction were removed from −86° C. and homogenised. 500 μl of lysis solution/2-ME was added to each sample and these were mechanically disrupted using one 5 mm stainless steel bead per sample. These were then placed in a Tissue Lyser (Qiagen) and lysates were homogenised for 3 mins and transferred to a GenElute Filtration Column (Sigma Aldrich) and RNA was extracted. 1 µg of total RNA was used for cDNA synthesis using oligo(dT)20 primer in a final reaction volume of 20 μl with Superscript™ III First-Strand synthesis system for reverse transcriptase-polymerase chain reaction (RT-PCR) (Invitrogen Life Technologies, Carlsbad, Calif.). At the last step of cDNA synthesis, treatment with E. coli RNase H (Invitrogen Corp.) was performed to digest the remaining RNA/mRNA template, resulting in the production of the single-stranded cDNA template for subsequent qRT-PCR reactions.
(§6) All porcine primers for the cytokine genes interferon gamma (IFN-γ), interleukin-1α (IL-1α), IL-6, IL-8, IL-10, IL-17, tumour necrosis factor (TNF-α), the mucin genes (MUCs 1, 2, 4, 5AC, 12, 13 and 20) and three reference genes, β-actin (ACTB), Glyceraldehyde-3-phosphate dehydrogenase (GAPDH) and Peptidylprolyl isomerase A (PPIA), were designed using Primer Express™ (PE Applied Biosystems, Foster City, Calif.) and synthesised by MWG Biotech (Milton Keynes, UK). These reference genes were previously validated for use in porcine tissue and qPCR was then carried out on the cDNA using the ABI PRISM 7900HT Fast sequence detection system for 96-well plates (Applied Biosystems, Foster City, Calif.). All samples were prepared in duplicate using SYBR Green Fast PCR Master Mix (Applied Biosystems, Foster City, Calif.), cDNA as template and specific primers for the genes selected. For each reaction 5 μl cDNA, 1.2 μl (forward and reverse primer mix, 5 μM), 10 μl Fast SYBR Green PCR Master Mix (PE Applied Biosystems, Foster City, Calif.) was added and made up to a final volume of 20 μl. The two step PCR program was as follows: 95° C. for 10 minutes for 1 cycle followed by 95° C. for 15 seconds and 60° C. for 1 minute for 40 cycles. The raw Ct values for the reference genes were converted to relative quantities using the formula Q=E ^ΔCt where E is the PCR efficiency of the assay and ^ΔCt is the value calculated for the difference between the lowest Ct value for each gene minus the Ct value of the sample in question. The relative quantities of the endogenous controls were then analysed for stability in geNorm (Vandesompele et al., 2002). The stability ‘M’ value generated by the geNorm application for the selected endogenous controls (ACTB, GAPDH and PPIA) indicated their suitability as endogenous controls for these intestinal samples. The geometric mean of the relative quantities for ACTB, GAPDH and PPIA (normalisation factor) was then calculated using geNorm. The relative quantities of each target gene were divided by the normalisation factor (obtained in geNorm) for that sample to give the final normalised relative expression.

For assay [4], the system named is MUC12. In words: Mucin gene expression in ileum and colon (qPCR), Example 5. The conditions noted are these: LAM supplementation. The procedure:
as §3, §4, §5, §6

The subject of assay [5] is MUC13. The assay is described as above. The note with it: LAM supplementation. The procedure: as §3, §4, §5, §6
In assay [6] the test system is MUC1. The description is as above. The note with it: colon; LAM supplementation. On the procedure:
as §3, §4, §5, §6

Assay [7] relates to MUC20. The assay is described as above. The note with it: LAM supplementation. The procedure: as §3, §4, §5, §6
Assay [8] has as its system MUC2. Described as above. The procedure: as §3, §4, §5, §6
The subject of assay [9] is MUC4. Described as above. On the procedure:
as §3, §4, §5, §6

The subject of assay [10] is MUC5AC. The assay is described as above. The conditions noted are these: colon; LAM supplementation. The procedure: as §3, §4, §5, §6

laminarin: in assay [1] (LAM supplemented diets (300 ppm) v unsupplemented (26.24), in % (unit assumed)), the “faecal DM content” value came out at 28.64. The faecal score result is reported as “no effect” in [1] (days 0-21, compared to the basal diet) and 2.05 in assay [1] (days 7-14, scale 1 (hard) to 5 (watery), LAM supplemented diets v 2.57). Also, the “faecal E. coli population” value in assay [2] is given as 7.22. Also, in assay [3], the IL-6 gene expression entry is recorded as “no effects”. The MUC12 expression entry in [4] (colon) and in assay [4] (ileum) was “no effect” throughout. In addition, the MUC13 expression result in [5] (colon) and in [5] (ileum) was “no effect” in each case. Also, the MUC1 expression entry in [6] was “no effect”. Besides, the MUC20 expression entry in assay [7] (colon) and in assay [7] (ileum) was “no effect” throughout. The MUC2 expression result in assay [8] (colon, LAM 600 ppm) is reported as “significantly increased”; in [8] (ileum, LAM 300 ppm relative to control animals), “increase”. Further, in [8] (ileum, LAM 600 ppm), the “increased MUC2 expression” value was “not observed”. In addition, the MUC4 expression entry is “significantly increased” in assay [9] (colon, LAM 600 ppm) and “no effect” in assay [9] (ileum, LAM supplementation). In addition, the MUC5AC expression result in assay [10] is recorded as “no effect”.
